Paper PMC4514850, “A Novel TGR5 Activator WB403 Promotes GLP-1 Secretion and Preserves Pancreatic β-Cells in Type 2 Diabetic Mice” (PLoS ONE, 2015)
Each block holds one molecule with its values, some of them ahead of it.

What was measured:
[1] = test system: TGR5; settings: moderate bile acids; ref [22], [34]; cited from earlier work
[2] = test system: NCI-H716 cells; assay: active GLP-1 secretion in NCI-H716 cells; format: cell-based, human; settings: 10 μmol/l, 30 min
Experimental: Endocrine differentiation was induced by seeding NCI-H716 cells in plates coated with Matrigel (Becton Dickinson). Cells were washed with RPMI-1640 medium without FBS and incubated in the same medium containing indicated compounds at 10 μmol/l. The condition medium was collected after 30 min. GLP-1 secretion in MIN6 or primary enterocytes was conducted similarly. To isolate primary enterocytes, ileum or colon was cut into 2 cm length, rinsed by PBS (pH7.2∼7.4) before dispersed in 10 mmol/l EDTA/PBS (pH7.4) for 15 min at room temperature, followed by pipetting up and down. Enterocytes were collected by filtration through a 70 μm cell strainer. To study the effect of WB403 on GLP-1 secretion in vivo, mice in group of three were fasted overnight and orally received 0, 50, 100 mg/kg of WB403 dispersed in 0.5% CMC with a DPP-4 inhibitor (5 mg/kg). There were 5 animals in each group. 2 g/kg glucose was administrated 30 min later and blood was collected 10 min after glucose challenge.
The GLP-1 (active) ELISA kit was purchased from Millipore, and insulin ELISA kit was from Mercodia. For quantitative determination of cAMP, a competitive enzyme immunoassay kit from R&D system was used. All immunoassays were performed according to manufacturers’ instructions.

[3] = target: T1, hTGR5 (Homo sapiens, UniProt Q8TDU6); assay: human TGR5 CRE-luciferase assay in co-transfected 293T cells; format: cell-based
T1 construct: expressed in transfected cells; host or cells: 293T cells, transient transfection with pTGR5 (gift from Prof. Johan Auwerx)
T1 sequence (Q8TDU6 1-330): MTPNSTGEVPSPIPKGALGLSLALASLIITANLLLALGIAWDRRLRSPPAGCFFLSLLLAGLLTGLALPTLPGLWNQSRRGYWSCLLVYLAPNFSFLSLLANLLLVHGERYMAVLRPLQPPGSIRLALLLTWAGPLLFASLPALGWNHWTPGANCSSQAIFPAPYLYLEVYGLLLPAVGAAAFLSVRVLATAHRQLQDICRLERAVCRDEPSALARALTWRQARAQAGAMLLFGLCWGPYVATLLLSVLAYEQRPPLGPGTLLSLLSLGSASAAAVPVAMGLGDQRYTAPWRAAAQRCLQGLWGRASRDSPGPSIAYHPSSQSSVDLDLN
Experimental: For human TGR5 luciferase (luc) assay, 293T cells were co-transfected with pCRE-luc, pTGR5 (kind gift from Prof. Johan Auwerx, Ecole Polytechnique Fédérale de Lausanne, Lausanne, Switzerland) and pRenilla (Promega, USA). WB403 was added 5 h later. Cells were harvested after 16 h and subjected to luciferase analysis on Lumistar Optima chemiluminescent detector (BMG labtech, Germany). For cAMP testing, 293T cells transiently transfected with pTGR5 or pGPR119 (GeneCopoeia, USA) were washed by FBS-free DMEM, and stimulated with WB403 in FBS-free DMEM containing 3-isobutyl-1-methyl-xanthine (IBMX, Sigma). Cell lysates were collected 30 min later and used for cAMP ELISA assay. FLIPR Calcium 5 assay kit (Molecular Devices, USA) was used for calcium mobilization assay. 293-GPR40 stable cells (kindly provided by Prof. Naiming Zhou of Zhejiang University, Hanzhou, China) or 293 cells transient transfected with GPR120 were seeded at 50,000 cells per well in black-walled clear-bottomed 96-well plates (Costar). An equal volume of loading buffer containing Fluo 4-AM was added the following day and cells were incubated for 1 h before stimulated with compounds. Increase of the intracellular Ca^2+ concentration was monitored by Flexstation 3 system (Molecular Devices, USA).
(§1) Fig 1 WB403 activated TGR5 and promoted active GLP-1 secretion. (A) WB403 stimulated hTGR5 in CRE-luciferase report system at the concentration range of 1–20 μmol/l. (B) WB403 stimulated hTGR5 specific cAMP accumulation at the concentration range of 1–50 μmol/l. n = 3. **p<0.01, ***p<0.001 vs. DMSO (+TGR5) group. (C) The hTGR5 targeted CRE-luciferase activity of WB403 and ZY403. […] (D) Effect of WB403 and ZY403 on gallbladders of mice. Normal mice were fasted overnight and treated with compounds (200 mg/kg) or vehicle (DMSO) by ip injection. Gallbladders (GB) were removed 30 min later and volumes measured then normalized to body weight (B.W.). n = 10. **p<0.01 vs. vehicle group. (E) Structure of WB403 and ZY403. WB403 promoted GLP-1 secretion in NCI-H716 cells (F), primary enterocytes (G), and MIN6 cells (H). n = 3. *p<0.05, **p<0.01, ***p<0.001 vs. vehicle group. (I) WB403 promoted GLP-1 in ICR mice. n = 5. **p<0.01 vs. vehicle group. Values represent mean ± SEM.

[4] = test system: gallbladders of mice; assay: gallbladder filling in normal mice; format: in vivo; settings: 200 mg/kg ip, normal mice fasted overnight, gallbladders removed 30 min later, n = 10
Excerpt: as §1

[5] = test system: db/db mice; assay: pancreas histology (H&E, IHC) of treated db/db mice; format: in vivo
Experimental: Analysis of islet cell mass was performed using conventional methods. In brief, mice were sacrificed by cervical dislocation. The body part of the pancreas was rapidly excised, fixed in 10% neutral buffered formalin solution for 24 h and embedded in paraffin, then sectioned at 5 μm ready for hematoxylin and eosin (H&E) staining and immunohistochemistry staining (IHC). The latter was carried out using rabbit anti-insulin polyclonal antibody (Cat. no. 4590, 1:600) and rabbit anti-glucagon monoclonal antibody (Cat. no. 8233s, 1:200) from Cell Signaling Technology.
Fig 5 WB403 preserved the mass of pancreatic β-cells and normal distribution of α and β-cells. (A) H&E staining of pancreas from db/db mice, and statistical result. Islets were sized by the Image J analysis software on alternated pancreatic sections spaced each by 100 μm. (B) Immunohistochemical analysis of pancreatic sections by anti-insulin antibody or anti-glucagon antibody. (C) H&E staining of pancreas from HFD/STZ mice, and statistical result. Results are representative islets from each group. 1–5 in the column graph on the right represents normal mice, diabetic mice treated with vehicle, WB403 50 mg/kg, WB403 100 mg/kg, sitagliptin 100 mg/kg respectively (n = 5). *p<0.05, **p<0.01, ***p<0.001 vs. diabetes-vehicle group.

SMILES: C[C@H](CCC(=O)O)[C@H]1CC[C@H]2[C@@H]3[C@H](O)C[C@@H]4C[C@H](O)CC[C@]4(C)[C@H]3C[C@H](O)[C@]12C [CA, cholicacid]
- EC50 [1]: 7.72 µM

- EC50 ([3]; CRE-luciferase, 293T cells, Fig 1C, read-out: EC50, hTGR5 targeted CRE-luciferase activity): 1.3 µM
- TGR5 luciferase activity in primary screen (fold increase compared to DMSO control) ([3]; screen of 100 compounds, S1 Fig): highest luciferase activity
- gallbladder filling [4]: caused gallbladder filling
SMILES: CCc1cc(-c2nc(CCOCc3ccc(Br)cc3)cs2)ccn1 [ZY403]
- GLP-1 stimulation in NCI-H716 cells [2]: did not show a strong stimulation for GLP-1 activity

SMILES: N[C@@H](CC(=O)N1CCn2c(nnc2C(F)(F)F)C1)Cc1cc(F)c(F)cc1F [sitagliptin, sitagliptin phosphate, reference compound]
- islet area vs vehicle ([5]; H&E, after 4-week treatment): bigger islet area as compared to the vehicle mice, though no significant difference was found
- α-cell and β-cell distribution in islets ([5]; IHC anti-insulin / anti-glucagon): significantly reduced α-cell in the islet core area and restored the normal cell distribution pattern
